Assays:
[1] = Part B safety: adverse events (NCI CTCAE v5.0), safety population; type: in vivo, human (patients with solid tumors); conditions: by treatment period
Procedure: Part B of the core phase assessed the effect of the strong CYP3A inhibitor itraconazole on the PK of pamiparib in patients with solid tumors. All patients received a single dose of oral pamiparib 20 mg on days 1 and 7, and oral itraconazole 200 mg QD on days 3–8. The 20-mg pamiparib dose, the lowest dose strength available and one-sixth of the highest phase 1 dose (120 mg), was deemed sufficient to cover the plasma exposure increase due to complete blockade of CYP3A by itraconazole. Part B patients fasted for at least 8 h before and at least 4 h after pamiparib administration, except for day 7 upon which itraconazole administration occurred ~ 30 min after completing a meal and pamiparib administration followed within 5 min of itraconazole administration. Blood samples for PK analysis were obtained on days 1 and 7 at the same time points listed above for Part A. After completing the core phase in Part A and Part B, patients were offered participation in the extension phase, in which they were to receive pamiparib PO BID in 28-day cycles until disease progression, unacceptable toxicity, withdrawal of consent, or any other reason for discontinuation.
(§1) Adverse events (AEs) were monitored throughout the study and were graded according to the National Cancer Institute Common Terminology Criteria v5.0.
(§2) The safety population included all patients who received at least one dose of pamiparib. […] Plasma PK parameters were calculated from pamiparib concentration–time profiles using standard noncompartmental methods. PK parameters were calculated using Phoenix WinNonlin v6.4 or higher (Certara, Princeton, NJ, USA). […] Data for each treatment part were analyzed separately. Log-transformed AUC and Cmax values were analyzed using a linear mixed-effect model analysis assuming a fixed effect for treatment and a random effect for patients. The study design called for ~ 24 patients (12 in each part) to be enrolled to ensure at least 20 (10 in each part) completed the study. This sample size was based on the precedent set by other PK studies of a similar nature and was not based on power calculations.

CYP3A rather than CYP2C8 = test system: CYP3A rather than CYP2C8; design: method as in PMID 11136296; conditions: cited from earlier work
CYP2C8 = test system: CYP2C8; design: method as in PMID 21838784; conditions: cited from earlier work
[2] = Part A safety: adverse events (NCI CTCAE v5.0), safety population; type: in vivo, human (patients with advanced solid tumors); conditions: Part A (N = 12); by treatment period
Procedure: This was an open-label, parallel-group, phase 1 study consisting of a 2-part core phase and an extension phase. Only results for the core phases are reported herein (Supplementary Fig. 1). […] Blood samples for PK analysis were obtained on days 1 and 10 at predose, and at 0.5, 1, 2, 4, 6, 9, 12, 24, and 48 h postdose. Pamiparib plasma concentrations were determined using a validated liquid chromatography–mass spectrometry/mass spectrometry method (lower limit of quantification 1.0 ng/mL) at Covance Laboratory Services (Salt Lake City, Utah).
as §1, §2

P-glycoprotein = test system: P-glycoprotein; design: method as in PMID 32652442; conditions: cited from earlier work
[3] = design: method as in PMID 27745744; conditions: cited from earlier work
[4] = Part B (N = 13; N = 12 for pamiparib with itraconazole)
[5] = olaparib with itraconazole administration

CCC(C)n1ncn(-c2ccc(N3CCN(c4ccc(OCC5COC(Cn6cncn6)(c6ccc(Cl)cc6Cl)O5)cc4)CC3)cc2)c1=O (centres unmarked) [Itraconazole, itraconazole, reference compound]
All TEAEs (any grade), patients [1, 4]: 2 (15.4) n (%)
Any treatment-related TEAE, patients [1, 4]: 1 (7.7) n (%)
Grade >= 3 TEAE, patients [1, 4]: 1 (7.7) n (%)
Serious AE, patients [1, 4]: 1 (7.7) n (%)
Treatment-related TEAE related to itraconazole only, patients [1, 4]: 0 n (%)
Treatment-related TEAE related to pamiparib only, patients [1, 4]: 0 n (%)
Serious AE related to both, patients ([1]; Part B): 0 n (%)
Serious AE related to itraconazole only, patients ([1]; Part B): 0 n (%)
Serious AE related to pamiparib only, patients ([1]; Part B): 0 n (%)
specificity of inhibition for CYP3A rather than CYP2C8 (CYP3A rather than CYP2C8): ~ 100 fold
in vivo CYP2C8 inhibition (CYP2C8; inferred from montelukast clinical study): negligible

CO[C@H]1/C=C/O[C@@]2(C)Oc3c(C)c(O)c4c(O)c(c(/C=N/N5CCN(C)CC5)c(O)c4c3C2=O)NC(=O)/C(C)=C\C=C\[C@H](C)[C@H](O)[C@@H](C)[C@@H](O)[C@@H](C)[C@H](OC(C)=O)[C@@H]1C [Rifampin, rifampin, reference compound]
Any treatment-related TEAE, patients [2]: 1 (8.3) n (%)
Grade >= 3 TEAE, patients [2]: 0 n (%)
Serious AE, patients [2]: 0 n (%)
Treatment-related TEAE related to both, patients [2]: 0 n (%)
Treatment-related TEAE related to pamiparib only, patients [2]: 0 n (%)
Treatment-related TEAE related to rifampin only, patients [2]: 1 (8.3) n (%)

CC(C)(O)c1ccccc1CC[C@@H](SCC1(CC(=O)O)CC1)c1cccc(/C=C/c2ccc3ccc(Cl)cc3n2)c1 [montelukast]
effect of CYP2C8 inhibitor gemfibrozil on montelukast AUC (CYP2C8): markedly increased
effect of itraconazole coadministration on montelukast PK (CYP2C8): no significant effects

O=C(c1cc(Cc2n[nH]c(=O)c3ccccc23)ccc1F)N1CCN(C(=O)C2CC2)CC1 [olaparib]
P-glycoprotein substrate status (P-glycoprotein): substrate of P-glycoprotein
AUC treatment ratio with itraconazole [3, 5]: 2.70
Cmax treatment ratio with itraconazole [3, 5]: 1.42
AUC increase with itraconazole observed in one patient ([3]; olaparib with itraconazole, one patient): sevenfold

CNCc1ccc(-c2[nH]c3cc(F)cc4c3c2CCNC4=O)cc1 [rucaparib]
P-glycoprotein substrate status (P-glycoprotein): substrate of P-glycoprotein

Cn1ncnc1[C@H]1c2n[nH]c(=O)c3cc(F)cc(c23)N[C@@H]1c1ccc(F)cc1 [talazoparib]
P-glycoprotein substrate status (P-glycoprotein): substrate of P-glycoprotein

C[C@]1(c2nc3c(C(N)=O)cccc3[nH]2)CCCN1 [veliparib]
P-glycoprotein substrate status (P-glycoprotein): substrate of P-glycoprotein
